pIC50: −log10 of the molar value. Structures can show the parent of a compound that is named as a salt. A value given as a limit tells only on which side of the number the result lay.

From patent US10562891B2, “Quinazolinones as PARP14 inhibitors” (Ribon Therapeutics Inc., priority 2017, dated 2020) come the findings set out here.

Sequence of catalytic domain of human PARP14 (Q460N5 1611-1801): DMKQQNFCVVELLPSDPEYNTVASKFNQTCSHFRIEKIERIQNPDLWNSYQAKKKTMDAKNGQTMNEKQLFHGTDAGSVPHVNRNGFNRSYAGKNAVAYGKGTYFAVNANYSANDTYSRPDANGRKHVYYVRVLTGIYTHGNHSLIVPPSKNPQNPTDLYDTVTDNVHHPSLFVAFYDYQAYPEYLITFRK

For this experiment, the target named is catalytic domain of human PARP14 (Homo sapiens (Human), UniProt Q460N5). Nature of the experiment: Enzymatic assay for inhibition of PARP14 (DELFIA, auto-modification with biotin-NAD). The class given is biochemical. The conditions noted are these: auto-modification of PARP14 by biotin-NAD, 50 nM PARP14, 3 μM biotin-NAD. In outline:
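His-TEV-tagged PARP14 catalytic domain (50 nM) preincubated with compound 30 min at 25 °C, then auto-modified with 3 μM biotin-NAD for 3 h at 25 °C in HEPES pH 8 buffer with DTT. IC50 from 4-parameter fit, rucaparib and DMSO as controls.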
`CC(=O)N1CCC(Nc2ccc3c(=O)[nH]c(CSC4CCOCC4)nc3c2)C1` (stereo not drawn) [Example 134, 7-((1-Acetylpyrrolidin-3-yl)amino)-2-(((tetrahydro-2H-pyran-4-yl)thio)methyl)quinazolin-4(3H)-one] showed a pIC50 of 5.00 to 6.00.
In turn, `Cc1c(Oc2ccccc2)ccc2c(=O)[nH]c(CSC3CCOCC3)nc12` [Example 135, 8-Methyl-7-phenoxy-2-(((tetrahydro-2H-pyran-4-yl)thio)methyl)quinazolin-4(3H)-one] showed a pIC50 of under 5.00.
Turning to `O=c1[nH]c(CS[C@H]2CC[C@H](CO)CC2)nc2cc(NC3CCCCC3)ccc12` [Example 136, 7-(Cyclohexylamino)-2-(((trans-4-(hydroxymethyl)cyclohexyl)thio)methyl) quinazolin-4(3H)-one], the pIC50 is over 6.00.
`O=c1[nH]c(CS[C@H]2CC[C@@H](CO)CC2)nc2cc(NC3CCCCC3)ccc12` [Example 137, 7-(Cyclohexylamino)-2-(((cis-4-(hydroxymethyl)cyclohexyl)thio)methyl) quinazolin-4(3H)-one] showed a negative logarithm of the IC50 (pIC50) of over 6.00.
With `Cc1cccc2c(=O)[nH]c(CSC3CCN(Cc4nccn4C)CC3)nc12` [Example 138, 8-Methyl-2-(((1-((1-methyl-1H-imidazol-2-yl)methyl)piperidin-4-yl)thio)methyl)quinazolin-4(3H)-one bistrifluoroacetate], the pIC50 was over 6.00.
For the molecule `CC(=O)Nc1ccc(CN2CCC(SCc3nc4c(C)cccc4c(=O)[nH]3)CC2)cc1` [Example 139, N-(4-((4-(((8-Methyl-4-oxo-3,4-dihydroquinazolin-2-yl)methyl)thio)piperidin-1-yl)methyl)phenyl)acetamide trifluoroacetate], the pIC50 was over 6.00.
`Cc1cccc2c(=O)[nH]c(CSC3CCN(Cc4ccc(N(C)C)cc4)CC3)nc12` [Example 140, 2-(((1-(4-(Dimethylamino)benzyl)piperidin-4-yl)thio)methyl)-8-methylquinazolin-4(3H)-one trifluoroacetate]: the pIC50 is over 6.00.
Next, `Cc1cccc2c(=O)[nH]c(CSC3CCN(Cc4ccc(C#N)cc4)CC3)nc12` [Example 141, 4-((4-(((8-Methyl-4-oxo-3,4-dihydroquinazolin-2-yl)methyl)thio)piperidin-1-yl)methyl)benzonitrile trifluoroacetate]: 5.00 to 6.00; `Cc1cccc2c(=O)[nH]c(CSC3CCN(Cc4cc[nH]n4)CC3)nc12` [Example 142, 2-(((1-((1H-Pyrazol-3-yl)methyl)piperidin-4-yl)thio)methyl)-8-methylquinazolin-4(3H)-one trifluoroacetate]: over 6.00.
The molecule `Cc1cccc2c(=O)[nH]c(CSC3CCN(Cc4nn(C)c5ccccc45)CC3)nc12` [Example 143, 8-Methyl-2-(((1-((1-methyl-1H-indazol-3-yl)methyl)piperidin-4-yl)thio)methyl)quinazolin-4(3H)-one trifluoroacetate] had a pIC50 of 5.00 to 6.00.
To `Cc1nn(C)cc1CN1CCC(SCc2nc3c(C)cccc3c(=O)[nH]2)CC1` [Example 144, 2-(((1-((1,3-Dimethyl-1H-pyrazol-4-yl)methyl)piperidin-4-yl)thio)methyl)-8-methylquinazolin-4(3H)-one trifluoroacetate] belongs 5.00 to 6.00.
As to `Cc1cccc(CN2CCC(SCc3nc4c(C)cccc4c(=O)[nH]3)CC2)n1` [Example 145, 8-Methyl-2-(((1-((6-methylpyridin-2-yl)methyl)piperidin-4-yl)thio)methyl)quinazolin-4(3H)-one bistrifluoroacetate], the negative logarithm of the IC50 (pIC50) was over 6.00.
`Cc1cccnc1CN1CCC(SCc2nc3c(C)cccc3c(=O)[nH]2)CC1` [Example 146, 8-Methyl-2-(((1-((3-methylpyridin-2-yl)methyl)piperidin-4-yl)thio)methyl)quinazolin-4(3H)-one bistrifluoroacetate] showed a pIC50 of over 6.00.
For `Cc1cccc2c(=O)[nH]c(CSC3CCN(CCc4ccccc4)CC3)nc12` [Example 147, 8-Methyl-2-(((1-phenethylpiperidin-4-yl)thio)methyl)quinazolin-4(3H)-one trifluoroacetate], the pIC50 is over 6.00.
In turn, `Cc1cccc2c(=O)[nH]c(CSC3CCN(Cc4ccc5cnn(C)c5c4)CC3)nc12` [Example 148, 8-Methyl-2-(((1-((1-methyl-1H-indazol-6-yl)methyl)piperidin-4-yl)thio)methyl)quinazolin-4(3H)-one trifluoroacetate] had a pIC50 of over 6.00.
As to `Cc1n[nH]cc1CN1CCC(SCc2nc3c(C)cccc3c(=O)[nH]2)CC1` [Example 149, 8-Methyl-2-(((1-((3-methyl-1H-pyrazol-4-yl)methyl)piperidin-4-yl)thio)methyl)quinazolin-4(3H)-one trifluoroacetate], the pIC50 is 5.00 to 6.00.
As for `CC(=O)Nc1cccc(CN2CCC(SCc3nc4c(C)cccc4c(=O)[nH]3)CC2)c1` [Example 150, N-(3-((4-(((8-Methyl-4-oxo-3,4-dihydroquinazolin-2-yl)methyl)thio)piperidin-1-yl)methyl)phenyl)acetamide trifluoroacetate], the pIC50 is 5.00 to 6.00.
As to `Cc1cccc2c(=O)[nH]c(CSC3CCN(Cc4c[nH]c5ccncc45)CC3)nc12` [Example 151, 2-(((1-((1H-Pyrrolo[3,2-c]pyridin-3-yl)methyl)piperidin-4-yl)thio)methyl)-8-methylquinazolin-4(3H)-one bistrifluoroacetate], the pIC50 is over 6.00.
In turn, `Cc1cccc2c(=O)[nH]c(CSC3CCN(Cc4cnc5ccccn45)CC3)nc12` [Example 152, 2-(((1-(Imidazo[1,2-a]pyridin-3-ylmethyl)piperidin-4-yl)thio)methyl)-8-methylquinazolin-4(3H)-one trifluoroacetate] had a pIC50 of over 6.00.
To `Cc1cccc2c(=O)[nH]c(CSC3CCN(Cc4cncn4Cc4ccccc4)CC3)nc12` [Example 153, 2-(((1-((1-Benzyl-1H-imidazol-5-yl)methyl)piperidin-4-yl)thio)methyl)-8-methylquinazolin-4(3H)-one trifluoroacetate] belongs over 6.00; to `Cc1cccc2c(=O)[nH]c(CSC3CCN(Cc4cnn(Cc5ccccc5)c4)CC3)nc12` [Example 154, 2-(((1-((1-Benzyl-1H-pyrazol-4-yl)methyl)piperidin-4-yl)thio)methyl)-8-methylquinazolin-4(3H)-one trifluoroacetate], over 6.00; to `Cc1cccc2c(=O)[nH]c(CSC3CCN(Cc4ccccc4OCC#N)CC3)nc12` [Example 155, 2-(2-((4-(((8-Methyl-4-oxo-3,4-dihydroquinazolin-2-yl)methyl)thio)piperidin-1-yl)methyl)phenoxy)acetonitrile trifluoroacetate], over 6.00.
Consider `Cc1cccc2c(=O)[nH]c(CSC3CCN(Cc4ccc5c(c4)NC(=O)C5)CC3)nc12` [Example 156, 8-Methyl-2-(((1-((2-oxoindolin-6-yl)methyl)piperidin-4-yl)thio)methyl)quinazolin-4(3H)-one trifluoroacetate], for which the pIC50 was 5.00 to 6.00.
`COc1ccc(CN2CCC(SCc3nc4c(C)cccc4c(=O)[nH]3)CC2)nc1` [Example 157, 2-(((1-((5-Methoxypyridin-2-yl)methyl)piperidin-4-yl)thio)methyl)-8-methylquinazolin-4(3H)-one bistrifluoroacetate] had a pIC50 of over 6.00.

As usually defined, the pIC50 is the negative decadic logarithm of the IC50, by convention in mol/L. The low end stands for a large IC50, the high end for a small IC50.
